# In US9522962B2, “Peptides, conjugates and method for increasing immunogenicity of a vaccine” (Academisch Ziekenhuis Leiden h.o.d.n. LUMC, priority 2010, dated 2016):
# Entries after “also recorded” stand apart in the source; their conditions may differ. Like-named read-outs stand apart in the source and are kept apart here. Square brackets hold non-standard residues; d marks the D form. Ends that are not written are not given here. * marks the point of attachment. Biotin = O=C1N[C@H]2[C@H](CS[C@H]2CCCCC(=O)*)N1; code O = not defined here; Ahx = NCCCCCC(=O)O
# What was measured:
# [1] = tested on: antibodies in TETAQUIN® (anti-TTd antibodies); assay type: binding, human
# [2] = tested on: antibodies in individual human sera (e.g. serum 034960); experiment: Tettox ELISA of biotinylated peptides on individual human sera; assay type: binding; details: human serum 034960 diluted 100x
# Procedure: a 96-wells plate (preferably from Euro-Diagnostica, Arnhem, The Netherlands) is coated with streptavidin. The streptavidin coated 96 wells plate is blocked with PBS containing 5% BSA (200 μl/well, 1 h, room temperature). Subsequently, the plate is washed three times with PBS containing 0.05% TWEEN20® (polysorbate 20). A biotinylated peptide is coated by 1 h incubation at room temperature with 100 μl/well of a 2 μg/ml solution of the biotinylated peptide in PBS containing 1% BSA. The plate is washed three times with PBS containing 0.05% TWEEN20® (polysorbate 20) followed by incubation for 1 h at room temperature with 100 μl serum from […] a human subject as defined above (preferably having a high titer of anti-TTd antibodies) that had been diluted at least 100, 200, 400, 500 or 1000 times and preferably not more than 100,000, 10,000, 7,500, 5,000 or 2,500 times with PBS containing 1% BSA. Then the plate is washed three times with PBS containing 0.05% TWEEN20®(polysorbate 20). Each well is incubated for 1 h at room temperature with a HRP-conjugated IgG antibody (mouse anti-human IgG-HRP monoclonal, clone G18-145, cat no 555788, Becton Dickinson, 100 μl/well of a 1000× dilution in PBS containing 0.05% TWEEN20® (polysorbate 20)) after which the plate is washed three times with PBS containing 0.05% TWEEN20® (polysorbate 20). Development is performed with 2,2′-azino-di-(3-ethylbenzthiazoline sulfonic acid), ABTS+H2O2 1/1000, 100 μl/well. Optical density is measured at 415 nm with a BIO-RAD, model 680, microplate reader. In each plate, preferably a negative contol is included, more preferably at least in triplicate. A preferred negative contol is serum from a human subject without detectable anti-TTd antibodies. Another preferred negative control is a solution of BSA. A peptide according to (ii) above is a peptide according to the invention if it is bound by antibodies in at least 40, 45, 50, 55, 60, 65, 70, 75, 80, 85, 87, 90, 91, 92, 93, 94, 95, 96, 97, 98, 99% most preferably 100% of the tested human serum samples. A peptide is considered to be bound by antibodies in a serum sample if the determined optical density for that particular serum sample is at least 2.0, more preferably 2.5, 3.0, 3.5 or more times higher as compared to the optical density that is determined for the negative control.
# Streptavidin coated 96 wells plates (Euro-Diagnostica) were blocked with PBS containing 5% BSA (200 μl/well, 1 h, room temperature). Plates were washed three times with PBS containing 0.05% TWEEN20® (polysorbate 20). Coating of the biotinylated peptides was performed by 1 h incubation at room temperature with 100 μl/well of a 2 μg/ml solution of the biotinylated peptide in PBS containing 1% BSA. Plates were washed three times with PBS containing 0.05% TWEEN20®. Wells were incubated for 1 h at room temperature with either 100 μl TETAQUIN® […] that had been diluted 800× with PBS containing 1% BSA or with 100 μl human serum that had been diluted 100× with PBS containing 1% BSA. Plates were washed three times with PBS containing 0.05% TWEEN20® (polysorbate 20). Each well was incubated for 1 h at room temperature with a HRP-conjugated IgG antibody (mouse anti-human IgG-HRP monoclonal, clone G18-145, cat no 555788, Becton Dickinson, 100 μl/well of a 1000× dilution in PBS containing 0.05% TWEEN20® (polysorbate 20)). Plates were washed three times with PBS containing 0.05% TWEEN20® (polysorbate 20). Development was performed with 2,2′-azino-di-(3-ethylbenzthiazoline sulfonic acid), ABTS+H2O2 1/1000, 100 μl/well. Optical density was measured at 415 nm with a BIO-RAD, model 680, microplate reader.
# Thereafter, the inventors tested these 7 peptides on individual sera, because an epitope is needed to which every person makes antibodies.
# [3] = Table 6, conservative substitutions scan of […]
# [4] = Table 3, further length variants and Lys(formyl) variants, […], neg. control OD 0.30
# [5] = Table 2, length variants of peptide β-32, section 'With linker', […] diluted 800x, OD at 415 nm
# [6] = Table 2, length variants of peptide β-32, section 'Without linker' (sequence listed without Z O), […]
substance,measurement,setting,value
A I G I T E L K K L E S K I N K V F Z O [0942-10],ELISA OD TETAQUIN,"[1]; Table 5, Ala scan of […]",1.12
same,ELISA OD SERUM 034960,"[2]; Table 5, Ala scan of […]",1.29
F I G I T E L K K L E S K I N K L F Z O (FIGITELKKLESKINKLF[Ahx]K; not fully specified (residue 20)) [0942-44],ELISA OD TETAQUIN,[1]; [3],1.30
same,ELISA OD SERUM 034960,[2]; [3],1.47
F I G I T E L K K I E S K I N K V F Z O [0942-37],ELISA OD TETAQUIN,[1]; [3],1.11
same,ELISA OD SERUM 034960,[2]; [3],1.14
F I A I T E L K K L E S K I N K V F Z O [0942-12],ELISA OD TETAQUIN,"[1]; Table 5, Ala scan of […]",0.65
same,ELISA OD SERUM 034960,"[2]; Table 5, Ala scan of […]",0.23
F I G I T E L K K L E S K A N K V F Z O (FIGITELKKLESKANKVF[Ahx]K; not fully specified (residue 20)) [0942-23],ELISA OD TETAQUIN,"[1]; Table 5, Ala scan of […]",0.88
same,ELISA OD SERUM 034960,"[2]; Table 5, Ala scan of […]",1.08
F A G I T E L K K L E S K I N K V F Z O [0942-11],ELISA OD TETAQUIN,"[1]; Table 5, Ala scan of […]",1.04
same,ELISA OD SERUM 034960,"[2]; Table 5, Ala scan of […]",1.18
F I G I T E L K K L E S R I N K V F Z O (FIGITELKKLESRINKVF[Ahx]K(Biotin)) [0942-40],ELISA OD TETAQUIN,[1]; [3],1.19
same,ELISA OD SERUM 034960,[2]; [3],1.27
F I G I T E L K K L E T K I N K V F Z O (FIGITELKKLETKINKVF[Ahx]K(Biotin)) [0942-39],ELISA OD TETAQUIN,[1]; [3],0.88
same,ELISA OD SERUM 034960,[2]; [3],1.04
F I G I T E L K A L E S K I N K V F Z O [0942-18],ELISA OD TETAQUIN,"[1]; Table 5, Ala scan of […]",1.06
same,ELISA OD SERUM 034960,"[2]; Table 5, Ala scan of […]",1.22
Y I G I T E L K K L E S K I N K V F Z O (YIGITELKKLESKINKVF[Ahx]K(Biotin)) [0942-28],ELISA OD TETAQUIN,[1]; [3],1.23
same,ELISA OD SERUM 034960,[2]; [3],1.30
F I G I T E L A K L E S K I N K V F Z O [0942-17],ELISA OD TETAQUIN,"[1]; Table 5, Ala scan of […]",0.62
same,ELISA OD SERUM 034960,"[2]; Table 5, Ala scan of […]",0.65
F I S I T E L K K L E S K I N K V F Z O (FISITELKKLESKINKVF[Ahx]K(Biotin)) [0942-30],ELISA OD TETAQUIN,[1]; [3],1.10
same,ELISA OD SERUM 034960,[2]; [3],1.32
F I G I T E L K R L E S K I N K V F Z O (FIGITELKRLESKINKVF[Ahx]K(Biotin)) [0942-36],ELISA OD TETAQUIN,[1]; [3],1.12
same,ELISA OD SERUM 034960,[2]; [3],1.23
"F I G I T E L K K L E S K I N K V Y Z O (FIGITELKKLESKINKVY[Ahx]K; not fully specified (residue 20); also: O: biotin modification, exact residue form not clear) [0942-45]",ELISA OD TETAQUIN,[1]; [3],1.11
same,ELISA OD SERUM 034960,[2]; [3],1.23
F L G I T E L K K L E S K I N K V F Z O (FLGITELKKLESKINKVF[Ahx]K(Biotin)) [0942-29],ELISA OD TETAQUIN,[1]; [3],1.19
same,ELISA OD SERUM 034960,[2]; [3],1.29
F I G I T E L K K L E S K I N R V F Z O (FIGITELKKLESKINRVF[Ahx]K(Biotin)) [0942-43],ELISA OD TETAQUIN,[1]; [3],1.26
same,ELISA OD SERUM 034960,[2]; [3],1.31
F I G I T E L K K L E S K I N A V F Z O (FIGITELKKLESKINAVF[Ahx]K; not fully specified (residue 20)) [0942-25],ELISA OD TETAQUIN,"[1]; Table 5, Ala scan of […]",1.30
same,ELISA OD SERUM 034960,"[2]; Table 5, Ala scan of […]",1.28
F I G I T E L R K L E S K I N K V F Z O (FIGITELRKLESKINKVF[Ahx]K(Biotin)) [0942-35],ELISA OD TETAQUIN,[1]; [3],1.02
same,ELISA OD SERUM 034960,[2]; [3],0.90
F I G I T E L K K L E S K I A K V F Z O (FIGITELKKLESKIAKVF[Ahx]K; not fully specified (residue 20)) [0942-24],ELISA OD TETAQUIN,"[1]; Table 5, Ala scan of […]",1.37
same,ELISA OD SERUM 034960,"[2]; Table 5, Ala scan of […]",1.29
F I G I T D L K K L E S K I N K V F Z O [0942-33],ELISA OD TETAQUIN,[1]; [3],1.01
same,ELISA OD SERUM 034960,[2]; [3],0.95
F I G I T E L K K L D S K I N K V F Z O (FIGITELKKLDSKINKVF[Ahx]K; not fully specified (residue 20)) [0942-38],ELISA OD TETAQUIN,[1]; [3],0.41
same,ELISA OD SERUM 034960,[2]; [3],0.37
F I G I T E I K K L E S K I N K V F Z O [0942-34],ELISA OD TETAQUIN,[1]; [3],0.72
same,ELISA OD SERUM 034960,[2]; [3],0.80
F I G I T E L K K A E S K I N K V F Z O [0942-19],ELISA OD TETAQUIN,"[1]; Table 5, Ala scan of […]",0.70
same,ELISA OD SERUM 034960,"[2]; Table 5, Ala scan of […]",0.71
TSYLSITFLRDFWGNPLRYDTEZO [β55],binding to TETAQUIN (screen of overlapping 22-mer TTx peptides),"[1]; FIG. 3 (α-chain), FIG. 4 (β-chain)",good binding; also recorded: antibodies present
"F I G I T E L K K L E S K I N K V Z O (FIGITELKKLESKINKV[Ahx]K; not fully specified (residue 19); also: O: biotin modification, exact residue form not clear) [0925-55]",OD,[1]; [4],2.00
Q Y I K A N S K Z O (QYIKANSK-{Ahx-code O}; reading uncertain) [P36],OD,[1]; [5],0.2
same,OD,[1]; [6],0.2
I K A N S K F I G I T E L K K L E S Z O (IKANSKFIGITELKKLES-{Ahx-code O}; reading uncertain) [P5],OD,[1]; [5],0.9
same,OD,[1]; [6],0.9
J Z Z F I G I T E L K K L E S K I N K V F,"ELISA OD, effect of longer spacer and C- versus N-terminal biotinylation","[1]; Table 4, antibody source not given",0.22
F I G I T E L K K L Z O (FIGITELKKL-{Ahx-code O}; reading uncertain) [P24],OD,[1]; [5],0.35
same,OD,[1]; [6],0.35
E L K K L E S K I N K V F S Z O [0925-62],OD,[1]; [4],0.35
"F I G I T E L K J L E S J I Z O [0925-69, J = Lys(formyl)]",OD,[1]; [4],1.65
A N S K F I G I T E Z O (ANSKFIGITE-{Ahx-code O}; reading uncertain) [P26],OD,[1]; [5],0.2
same,OD,[1]; [6],0.2
I G I T E L K K L E S K I N Z O (IGITELKKLESKIN[Ahx]K(Biotin)) [0925-58],OD,[1]; [4],1.45
F I G I T E L K K L E S K I N Z O (FIGITELKKLESKIN[Ahx]K(Biotin)) [0925-57],OD,[1]; [4],1.65
I K A N S K F I Z O (IKANSKFI-{Ahx-code O}; reading uncertain) [P35],OD,[1]; [5],0.2
same,OD,[1]; [6],0.2
